ChEMBL document CHEMBL4706478, “Design, Synthesis, and Preclinical Evaluation of Fused Pyrimidine-Based Hydroxamates for the Treatment of Hepatocellular Carcinoma” (J Med Chem, 2018)
Values belong to the molecule of their own block, whether it stands above or below them.

Key:
[1] = Tmax in Balb/c mouse at 150 mg/kg, po by mass spectrometry; assay type: ADME, organism-based; details: in vivo
[2] = Cmax in Balb/c mouse at 50 mg/kg, po by mass spectrometry; assay type: ADME, organism-based; parameters: route oral, dose 50 mg/kg; details: in vivo
[3] = Oral bioavailability in Balb/c mouse at 50 mg/kg by mass spectrometry; assay type: ADME, organism-based; details: in vivo
[4] = Oral bioavailability in Balb/c mouse at 150 mg/kg by mass spectrometry; assay type: ADME, organism-based; details: in vivo
[5] = AUC (0 to infinity) in Balb/c mouse at 50 mg/kg, po by mass spectrometry; assay type: ADME, organism-based; parameters: route oral, time infinity, dose 50 mg/kg; details: in vivo
[6] = Cmax in Balb/c mouse at 150 mg/kg, po by mass spectrometry; assay type: ADME, organism-based; parameters: route oral, dose 150 mg/kg; details: in vivo
physchem = details: n-octanol/water, pH 7.4
[7] = AUC (0 to infinity) in Balb/c mouse at 50 mg/kg, iv by mass spectrometry; assay type: ADME, organism-based; parameters: route intravenous, time infinity, dose 50 mg/kg; details: in vivo
[8] = Volume of distribution at steady state in Balb/c mouse at 50 mg/kg, iv by mass spectrometry; assay type: ADME, organism-based; details: in vivo, read-out: Vdss
[9] = Clearance in Balb/c mouse at 50 mg/kg, iv by mass spectrometry; assay type: ADME, organism-based; details: in vivo
[10] = Tmax in Balb/c mouse at 50 mg/kg, po by mass spectrometry; assay type: ADME, organism-based; details: in vivo
[11] = AUC (0 to infinity) in Balb/c mouse at 150 mg/kg, po by mass spectrometry; assay type: ADME, organism-based; parameters: route oral, time infinity, dose 150 mg/kg; details: in vivo
in vitro [12] = details: mouse, liver microsomes
in vitro [13] = details: human, pooled liver microsomes
in vitro [14] = details: rat, liver microsomes

Tmax [1]: 30 min
Cmax [2]: 3.9 µM
bioavailability [3]: 5.8%
bioavailability [4]: 18.1%
AUC(0-inf) [5]: 0.97 µM·h
Cmax [6]: 10.1 µM
logD (physchem): 2.07
AUC(0-inf) [7]: 16.7 µM·h
Vd [8]: 3.06 L/kg
clearance [9]: 6.6 L/h/kg
Tmax [10]: 10.2 min
AUC(0-inf) [11]: 9.06 µM·h
SMILES: O=C(CCCCCCn1cnc2c(N3CCOCC3)nc(-c3cccc(CO)c3)nc21)NO

SMILES: Nc1ncc(-c2nc(N3CCOCC3)c3ncn(CCCCCCC(=O)NO)c3n2)cn1
half-life at 1 h, 5 µM (in vitro [12]): > 60 min
half-life at 1 h, 5 µM (in vitro [13]): > 60 min
half-life at 1 h, 5 µM (in vitro [14]): 35 min

logD (physchem): 3.07
SMILES: COc1ccc(-c2nc(N3CCOCC3)c3sc(CN(C)c4ncc(C(=O)NO)cn4)cc3n2)cn1 [FIMEPINOSTAT]

logD (physchem): 1.05
SMILES: O=C(CCCCCCC(=O)Nc1ccccc1)NO [VORINOSTAT]
